Assay results published in publication PMC11492869, “Dimerization and lysine substitution of melittin have differing effects on bacteria” (Frontiers in Pharmacology, 2024).
≈ marks a conversion by molar mass, not a printed value. Where two headings read alike, the source gives them in different places.

Experiments:
Type in all cases: cell-based
S. aureus ATCC 29213 = assay: microbe, parasite or virus in culture; conditions: 90 min incubation at 37°C, plated on LB agar 12–24 h, lowest concentration giving less than one CFU (≥99.9% reduction), mean ± SD, at least three biological repeats
Method: (§1) For the antimicrobial peptide assays, a 10 mL starter culture was produced by taking single colonies from LB agar plates to inoculate in Lysogeny/Luria Broth (1% w/v Oxoid Tryptone, 0.5% w/v NaCl, 0.5% w/v Oxoid Yeast Extract, pH 7.0, Thermo Scientific Pty, Ltd., Sydney, Australia) for bacteria; S. aureus ATCC 29213 and E. coli ATCC 8739 were grown aerobically at 37°C in an orbital shaker (Minitron, Infors HT) at 200 rpm. After overnight incubation, 0.5–1.0 mL of the starter culture was used to inoculate fresh LB broth (20 mL), and its growth was monitored at 600 nm using a spectrophotometer (model Varian Cary 50 Bio UV-Vis). Bacteria were harvested during the late exponential growth phase, and CFUs/mL were determined using the growth curve data set that correlated OD600 to CFUs/mL.
(§2) Antibacterial assays were undertaken to determine the minimum inhibitory concentration (MIC), the minimum bactericidal concentration (MBC), and the level of membrane disruption of each of the antimicrobial peptides (AMPs) and multimerized AMPs. […] After the 90-min incubation period, the antimicrobial activity (MIC and MBC) was determined as follows:
(§3) The CLSI protocol was followed to determine MBC. After incubation, bacteria were serially diluted (1:10) in PBS, plated on LB agar, and incubated for 12–24 h at 37°C; then, the CFUs were quantified. […]

E. coli ATCC 8739 [1] = conditions: cation-adjusted MHB, 1 × 10^5 cells/well, 90 min incubation with peptide at 37°C, then growth monitored 20 h at OD630, Lambert and Pearson analysis, mean ± SD, at least three biological repeats
Method: as §1
Antibacterial assays were undertaken to determine the minimum inhibitory concentration (MIC), the minimum bactericidal concentration (MBC), and the level of membrane disruption of each of the antimicrobial peptides (AMPs) and multimerized AMPs. For each bacterium, a stock solution (2 × 10^6 cells/mL) in cation-adjusted Mueller Hinton Broth (MHB) was made, and an aliquot was incubated with AMPs within 15 min from viable cell count and stock preparation. […] After the 90-min incubation period, the antimicrobial activity (MIC and MBC) was determined as follows: […]

E. coli ATCC 8739 [2] = conditions: cation-adjusted MHB, 90 min incubation at 37°C, plated on LB agar 12–24 h, lowest concentration giving less than one CFU (≥99.9% reduction), mean ± SD, at least three biological repeats
Method: as §1, §2, §3

H4IIE cells [3] = assay: Cytotoxicity (cell lysis), LDH release assay; conditions: for TI (cell lysis): H4IIE, LD50/MBC50
Method: (§4) To determine toxicity toward mammalian cells, 1 × 10^4 cells/well of HEK-293 (ATCC CRL-1573TM) or H4IIE in a total volume of […] in media (Eagle’s Minimum Essential Medium (EMEM) supplemented with 10% v/v fetal bovine serum, 5% v/v L-glutamine and 5% v/v penicillin/streptomycin) were seeded into 96-well plates and cultured at 37°C in a 5% CO2 incubator for 16–20 h. When cells were ≥90% confluent, the 100 µL media was removed and replaced with 50 μL serial dilutions of the AMP in media (final concentration 20–0.5 μM) and cultured at 37°C in a 5% CO2 incubator for 90 min. From each well, 50 µL was transferred to a new plate. To the 50 μL, 50 µL of lactate dehydrogenase (LDH) solution (CytoTox 96® Non-Radioactive Cytotoxicity Assay kit, Promega) was added to each well and incubated for a further 30 min at room temperature and protected from light. Cell death was determined by measuring absorbance at 490 nm using a microplate reader (PerkinElmer 1,420 Multilabel Counter VICTOR3). Positive and negative controls for inhibition were taken as cells incubated with lysis solution (CytoTox 96® Non-Radioactive Cytotoxicity Assay kit, Promega) and cells incubated in media alone, respectively. The background absorbance of media alone was subtracted from the sample absorbance, and the percentage of inhibition was calculated using the following formula: % Cytotoxicity=A490 test sample−A490 negative control/A490 positive control−A490 negative control×100.
(§5) The percentage of lysis was plotted against peptide concentration, and linear regression analysis was used to determine the AMP concentration needed to lyse 50% (LD50) of the cells.

[4] = tested on: HEK-293 (ATCC CRL-1573) cells; assay: Cytotoxicity (cell lysis), LDH release assay; conditions: for TI (cell lysis): HEK293, LD50/MBC50
Method: as §4, §5

H4IIE cells [5] = assay: Inhibition of cell proliferation, MTS assay; conditions: for TI (cell proliferation): H4IIE, IC50/MIC50
Method: (§6) To determine the inhibition of cell proliferation, 20 μL of 3-(4,5-dimethylthiazol-2-yl)-5-(3-carboxymethoxyphenyl)-2-(4-sulfophenyl)-2H-tetrazolium (MTS) solution (CellTiter 96 AQueous Non-Radioactive Cell Proliferation Assay kit, Promega) was added to the remaining 100 µL from the toxicity assay, and the plates were incubated for a further 1 h at 37°C in a 5% CO2 incubator protected from light. Cell proliferation was determined by measuring absorbance at 490 nm using a microplate reader (PerkinElmer 1,420 Multilabel Counter VICTOR3). Positive and negative controls for inhibition were taken as cells incubated with lysis solution (CytoTox 96® Non-Radioactive Cytotoxicity Assay kit, Promega) and cells incubated in media alone, respectively. The background absorbance of media alone was subtracted from the samples, and the percentage of inhibition was calculated using the following formula: % Inhibition=A490 test sample−A490 negative control/A490 positive control−A490 negative control×100.
(§7) The percentage of inhibition was plotted against peptide concentration, and linear regression analysis was used to determine the AMP concentration needed to inhibit 50% (IC50) of cell growth.

[6] = tested on: HEK-293 (ATCC CRL-1573) cells; assay: Inhibition of cell proliferation, MTS assay; conditions: for TI (cell proliferation): HEK293, IC50/MIC50
Method: as §6, §7

[7] = tested on: Chicken red blood cells (RBCs); assay: Hemolysis assay
Method: Chicken red blood cells (RBCs) in Alsever’s solution (RBCs, Equicell, Victoria, Australia) were diluted 1 in 20 in PBS (pH 7.4), pelleted by centrifugation, and washed three times in PBS (1,000 g, 10 min). The RBCs were counted using a cell counter (Coulter Particle Counter Z series, Beckman Coulter) and diluted to a final concentration of 2 × 10^7 cells/mL. Aliquots (100 μL) of the RBC solution were seeded into a V-bottomed 96-well plate containing 100 μL of serial dilutions (10–0.08 μM) of the AMP in PBS and incubated in a humidified atmosphere containing 5% CO2 at 37°C for 2 h. Following incubation, the RBCs were pelleted in a centrifuge (1,000 g, 10 min), and the amount of hemoglobin released in 100 μL aliquots of the supernatant was determined by measuring the absorbance at 405 nm using a microplate reader (PerkinElmer 1,420 Multilabel Counter VICTOR3). Positive and negative controls for hemolysis were taken as RBC lysed with 1% v/v Triton X-100 and RBC suspension in PBS, respectively. The percentage of hemolysis was calculated using the following formula: % Hemolysis A405 test sample−A405 negative control / A405 positive control−A405 negative controlx 100.
The percentage hemolysis was plotted against peptide concentration, and linear regression analysis was used to determine the hemolytic concentration needed to lyse 50% (HC50) of RBCs.

Molecule	MBC (S. aureus ATCC 29213; cation-adjusted MHB)	MIC (E. coli ATCC 8739 [1])	MBC (E. coli ATCC 8739 [2])	LD50 (H4IIE cells [3]; H4IIE cells, LDH release, 90 min exposure at 37°C, 20–0.5 μM, concentration lysing 50% of cells by linear regression, mean ± SD, at least three biological repeats)	TI (cell lysis) (H4IIE cells [3]; MBC50 toward S. aureus 29213)	TI (cell lysis) (H4IIE cells [3]; MBC50 towards E. coli 8729)	TI (cell lysis) ([4]; MBC50 toward S. aureus 29213)	TI (cell lysis) ([4]; MBC50 towards E. coli 8729)	LD50 ([4]; HEK293 cells, LDH release, 90 min exposure at 37°C, 20–0.5 μM, concentration lysing 50% of cells by linear regression, mean ± SD, at least three biological repeats)	IC50 (H4IIE cells [5]; H4IIE cells, MTS proliferation assay after 90 min exposure, 1 h MTS, linear regression, mean ± SD, at least three biological repeats)	TI (cell proliferation) (H4IIE cells [5]; MIC50 toward S. aureus 29213)	TI (cell proliferation) (H4IIE cells [5]; MIC50 towards E. coli 8729)	TI (cell proliferation) ([6]; MIC50 toward S. aureus 29213)	TI (cell proliferation) ([6]; MIC50 towards E. coli 8729)	IC50 ([6]; HEK293 cells, MTS proliferation assay after 90 min exposure, 1 h MTS, linear regression, mean ± SD, at least three biological repeats)	HC50 ([7]; chicken RBCs in PBS pH 7.4, 2 × 10^7 cells/mL stock, 10–0.08 μM, 2 h at 37°C, absorbance 405 nm, 1% Triton X-100 positive control, mean ± SD, at least three biological repeats)	TI (hemolysis) ([7]; chicken RBCs, HC50/MBC50, MBC50 toward S. aureus 29213)	TI (haemolysis) ([7]; chicken RBCs, HC50/MBC50, MBC50 towards E. coli 8729)	MBC (S. aureus ATCC 29213; Staphylococcus aureus, ATCC29213, cation-adjusted MHB, read-out: MBC)
CC[C@H](C)[C@H](NC(=O)CN)C(=O)NCC(=O)N[C@@H](C)C(=O)N[C@H](C(=O)N[C@@H](CC(C)C)C(=O)N[C@@H](CCCCN)C(=O)N[C@H](C(=O)N[C@@H](CC(C)C)C(=O)N[C@H](C(=O)N[C@H](C(=O)NCC(=O)N[C@@H](CC(C)C)C(=O)N1CCC[C@H]1C(=O)N[C@@H](C)C(=O)N[C@@H](CC(C)C)C(=O)N[C@H](C(=O)N[C@@H](CO)C(=O)N[C@@H](Cc1c[nH]c2ccccc12)C(=O)N[C@H](C(=O)N[C@@H](CCCCN)C(=O)N[C@@H](CCCNC(=N)N)C(=O)N[C@@H](CCCCN)C(=O)N[C@@H](CCCNC(=N)N)C(=O)N[C@@H](CCC(N)=O)C(=O)N[C@@H](CCC(N)=O)C(N)=O)[C@@H](C)CC)[C@@H](C)CC)[C@@H](C)O)[C@@H](C)O)C(C)C)C(C)C [1. Melittin, Melittin]	1.76 ± 0.76 µM (≈ 5.01 µg/mL)	6.89 ± 0.72 µM (≈ 19.6 µg/mL)	8.67 ± 0.93 µM (≈ 24.7 µg/mL)	1.79 ± 0.95 µM	2.05	0.41	0.85	0.17	0.75 ± 0.21 µM	2880 ± 80 nM	4.01	0.76	13.18	2.49	9.47 ± 3.63 µM	0.59 ± 0.04 µM	0.67	0.14	–
CN[C@H](CC(C)C)C(=O)N[C@H]1C(=O)N[C@@H](CC(N)=O)C(=O)N[C@H]2C(=O)N[C@H]3C(=O)N[C@H](C(=O)N[C@H](C(=O)O)c4cc(O)cc(O)c4-c4cc3ccc4O)[C@H](O)c3ccc(c(Cl)c3)Oc3cc2cc(c3O[C@@H]2O[C@H](CO)[C@@H](O)[C@H](O)[C@H]2O[C@H]2C[C@](C)(N)[C@H](O)[C@H](C)O2)Oc2ccc(cc2Cl)[C@H]1O [Vancomycin]	–	–	–	–	–	–	–	–	–	–	–	–	–	–	–	–	–	–	1.61 ± 0.44 µM (≈ 2.33 µg/mL)
Gentamycin	–	2.27 ± 0.33 µM	3.3 ± 0.78 µM	–	–	–	–	–	–	–	–	–	–	–	–	–	–	–	–
